# Data published in patent publication US20150359854A1 (HUMAN MATRIX SCIENCES, LLC, priority 2012, published 2015).
# “Also recorded” adds a separate entry of the source.
# How the values were obtained:
# [1] = test system: fibronectin or collagen I; test: Immunodetection of deposited fibronectin and collagen I; assay type: cell-based, human; conditions: insulin-treated cultures of both cell types
# IGF-1R = biological target: T1, IGF-1R (Homo sapiens, UniProt P08069); test: Immunoprecipitation and anti-phospho-Tyr blotting of IGF-1R; assay type: cell-based; conditions: 30 minutes, 0.5 to 10 nmol/L insulin or 10 nmol/L IGF-1, AoSMCs
# T1 construct: 30-minute treatment of cultured AoSMCs; endogenous in cells; host or cells: human aortic smooth muscle cells (AoSMCs), second passage
# Method: At the end of indicated treatments, the cultured cells were lysed as described, and 300 μL aliquots of cell extracts containing 300 μL proteins were incubated at 4° C. for 3 hours with the aliquots of protein G bound DYNABEADS® (Invitrogen Corp.) that were conjugated with either rabbit polyclonal anti-tropoelastin, goat polyclonal anti-Glut10, or rabbit polyclonal anti-S-Gal antibodies. The beads carrying the final immunoprecipitation products were then washed with PBS, resuspended in sample buffer, and boiled for 5 minutes. The released proteins were then resolved on SDS-PAGE gel and subjected to Western blotting using indicated antibodies.
# tropoelastin mRNA = test: RT-PCR assay of tropoelastin mRNA; assay type: cell-based, human; conditions: 10 nmol/L insulin
# Method: At the end of the treatments, total RNA was extracted from quadruplicate cultures in each experimental group using the RNEASY® (RNA isolation) Mini Kit. One microgram total RNA from each sample was added to one-step RT-PCR (One-Step RT-PCR Kit; Qiagen, Inc.). The reactions were set up in a total volume of 25 μL. The reverse transcription step was performed for elastin and 18S ribosomal RNA reactions at 50° C. for 30 minutes, followed by 15 minutes at 95° C. The elastin PCR reaction using sense primer 5′[…]-3′ (SEQ ID NO 1) and antisense primer 5′[…]3′ (SEQ ID NO 2). The products were analyzed using ethidium bromide staining and densitometry-based image analysis using an optical system (Gel Doc 1000; Bio-Rad Laboratories, Inc., Hercules, Calif.). The amount of tropoelastin mRNA was standardized relative to the amount of 18S ribosomal RNA and expressed as percentage of control values.
# FoxO1 = FoxO1 binding to elastin gene promoter DNA probe (FRE) on DYNABEADS; assay type: cell-based, human
# Method: Cells were then scraped, and their nuclear extracts were pre-pared using an isolation kit (Active Motif, Inc.). […] The equal molar amounts of both single-stranded DNA oligonucleotides were annealed in Tris-EDTA buffer (10 mmol/L Tris-HCl, 1 mmol/L EDTA (pH 8.0)) to form the double-stranded DNA probe. […] All preparations were subsequently incubated for 2 hours in 200 μL binding buffer (50 mmol/L KCl, 10% glycerol, 20 mmol/L HEPES (pH 7.9), 1 mmol/L MgCl2, 1 mmol/L DTT, 0.1 μg poly(DI-DC) (polydeoxyinosinic-deoxycytidylic), and proteinase inhibitors). After binding, the beads were washed four times in the same binding buffer, without poly(DI-DC). The bound proteins were resolved using 8% SDS-PAGE and probed using Western blotting with the anti-FoxO1 monoclonal antibody.
# tropoelastin = test: Metabolically labeled tropoelastin in cell extracts and conditioned media (secretion); assay type: cell-based, human; conditions: 10 nmol/L insulin, 1 hour
# Method: Cells were plated in 35-mm dishes at a density of 100,000 cells per dish and were grown to confluency. Two microcuries [3H]-valine per milliliter fresh medium supplemented with 2% FBS was added 2 hours before the indicated treatments. At the end of each experiment, the conditioned medium was collected and subjected to immunoprecipitation using anti-tropoelastin antibody. The cell layers were washed with PBS and incubated using radioimmunoprecipitation lysis buffer for 10 minutes on ice. After centrifugation, the supernatants were collected and subjected to immunoprecipitation using anti-tropoelastin antibody. […] Final results (counts per minute) reflecting the total amount of [3H]-valine-labeled insoluble elastin in individual cultures were normalized per their DNA contents (assessed using the Qiagen […] isolation) Tissue Kit) and expressed as percentage of control values. At the end of all treatments, cells from quadruplicate cultures in each experimental group were lysed using NP40 cell lysis buffer (Invitrogen Corp.). Thirty micrograms of protein extracts from each sample was suspended in standard sample buffer, resolved on 4% to 12% gradient SDS-PAGE gels, transferred to nitrocellulose membranes, and subjected to Western blotting using antibodies. At the end of indicated treatments, the cultured cells were lysed as described, and 300 μL aliquots of cell extracts containing […] were incubated at 4° C. for 3 hours with the aliquots of protein G bound DYNABEADS® (Invitrogen Corp.) that were conjugated with either rabbit polyclonal anti-tropoelastin, goat polyclonal anti-Glut10, or rabbit polyclonal anti-S-Gal antibodies. The beads carrying the final immunoprecipitation products were then washed with PBS, resuspended in sample buffer, and boiled for 5 minutes. The released proteins were then resolved on SDS-PAGE gel and subjected to Western blotting using indicated antibodies.
# [2] = after 2 hours [3H]-valine and BAPN, serum-free
# [3] = after 3 hours [3H]-valine and β-aminopropionitrile, 2% FBS
substance,measurement,setting,value
insulin,deposition of immunodetectable fibronectin or collagen I,[1],did not reveal any up-regulation
same,phosphorylation of IGF-1R,IGF-1R,did not affect phosphorylation
same,time of peak up-regulation of tropoelastin mRNA,tropoelastin mRNA,8 h
same,tropoelastin mRNA level,tropoelastin mRNA; in 4 hours (time course),significant up-regulation
same,tropoelastin mRNA level,"tropoelastin mRNA; 8-hour treatment, serum-free",induced significant up-regulation
same,binding of FoxO1 from nuclear extracts to elastin promoter FRE DNA probe,"FoxO1; AoSMCs treated 30 minutes with 10 nmol/L insulin, or preincubated with LY294002",could not sequester FoxO1; also recorded: could not bind FoxO1
same,reversal by insulin of FoxO1 binding to the probe in LY294002-treated cells,"FoxO1; LY294002 preincubation, consecutive insulin",could not reverse this interaction
same,immunodetected soluble tropoelastin in conditioned media vs untreated,tropoelastin; [2],significantly more
same,metabolically labeled soluble tropoelastin in cell extracts vs untreated,tropoelastin; [2],significantly less
same,less metabolically labeled tropoelastin in cell layer extracts than untreated controls,tropoelastin; [3],66%±6%
same,more metabolically labeled tropoelastin in conditioned media than untreated counterparts,tropoelastin; [3],94%±4%
